Results as given in publication PMC11807261 (ACS infectious diseases, 2022).

Tested on: GDI-KD-9, the Mtb H37Ra-derived glnA1 knockdown mutant
Assay type: cell-based, Mycobacterium tuberculosis

Row | Compound | GIC shift (times more sensitive) | GIC shift caused by the reduction of glnA1 expression | level at which growth inhibition saturates [% full scale] | growth inhibition at high concentrations
1 | COc1ccc2cc(-c3nc(C(C)(C)C)[nH]c3-c3ccnc(N)c3)ccc2c1 [11a] | 3.6 times | 3- to 4 fold | 20 | –
2 | C[C@]1(O)C[C@@H](c2nc(-c3ccc4ccc(-c5ccccc5)nc4c3)c3c(N)nccn32)C1 [LIN, linsitinib] | – | – | 20 | –
3 | CS(=N)(=O)CCC(N)C(=O)O [MSO, L-methionine S-sulfoximine] | – | 16 fold | – | inhibits the growth completely
4 | CO[C@H]1/C=C/O[C@@]2(C)Oc3c(C)c(O)c4c(O)c(c(/C=N/N5CCN(C)CC5)c(O)c4c3C2=O)NC(=O)/C(C)=C\C=C\[C@H](C)[C@H](O)[C@@H](C)[C@@H](O)[C@@H](C)[C@H](OC(C)=O)[C@@H]1C [RIF, rifampicin] | did not show any GIC shift | remained susceptible | – | –
